Laboratory results reported in publication PMC9185959, “A nutraceutical product, extracted from Cannabis sativa, modulates voltage-gated sodium channel function” (Journal of Cannabis Research, 2022).

Experiments:
Test in all cases: automated planar patch-clamp, whole-cell peak current
Type in all cases: cell-based
NaV1.2 = biological target: T1, NaV1.2 (Homo sapiens, UniProt Q99250); conditions: holding -80 mV, 200 ms at -120 mV then test pulse to 0 mV every 2 s; 5 min exposure, cumulative 0.1-100 μM; 0.1% DMSO; pH 7.4; 27°C; n=6
T1 construct: gene SCN2A; full-length channel, stably expressed in HEK293T cells; splice form and beta subunits not mentioned
T1 sequence (Q99250 whole entry, canonical isoform): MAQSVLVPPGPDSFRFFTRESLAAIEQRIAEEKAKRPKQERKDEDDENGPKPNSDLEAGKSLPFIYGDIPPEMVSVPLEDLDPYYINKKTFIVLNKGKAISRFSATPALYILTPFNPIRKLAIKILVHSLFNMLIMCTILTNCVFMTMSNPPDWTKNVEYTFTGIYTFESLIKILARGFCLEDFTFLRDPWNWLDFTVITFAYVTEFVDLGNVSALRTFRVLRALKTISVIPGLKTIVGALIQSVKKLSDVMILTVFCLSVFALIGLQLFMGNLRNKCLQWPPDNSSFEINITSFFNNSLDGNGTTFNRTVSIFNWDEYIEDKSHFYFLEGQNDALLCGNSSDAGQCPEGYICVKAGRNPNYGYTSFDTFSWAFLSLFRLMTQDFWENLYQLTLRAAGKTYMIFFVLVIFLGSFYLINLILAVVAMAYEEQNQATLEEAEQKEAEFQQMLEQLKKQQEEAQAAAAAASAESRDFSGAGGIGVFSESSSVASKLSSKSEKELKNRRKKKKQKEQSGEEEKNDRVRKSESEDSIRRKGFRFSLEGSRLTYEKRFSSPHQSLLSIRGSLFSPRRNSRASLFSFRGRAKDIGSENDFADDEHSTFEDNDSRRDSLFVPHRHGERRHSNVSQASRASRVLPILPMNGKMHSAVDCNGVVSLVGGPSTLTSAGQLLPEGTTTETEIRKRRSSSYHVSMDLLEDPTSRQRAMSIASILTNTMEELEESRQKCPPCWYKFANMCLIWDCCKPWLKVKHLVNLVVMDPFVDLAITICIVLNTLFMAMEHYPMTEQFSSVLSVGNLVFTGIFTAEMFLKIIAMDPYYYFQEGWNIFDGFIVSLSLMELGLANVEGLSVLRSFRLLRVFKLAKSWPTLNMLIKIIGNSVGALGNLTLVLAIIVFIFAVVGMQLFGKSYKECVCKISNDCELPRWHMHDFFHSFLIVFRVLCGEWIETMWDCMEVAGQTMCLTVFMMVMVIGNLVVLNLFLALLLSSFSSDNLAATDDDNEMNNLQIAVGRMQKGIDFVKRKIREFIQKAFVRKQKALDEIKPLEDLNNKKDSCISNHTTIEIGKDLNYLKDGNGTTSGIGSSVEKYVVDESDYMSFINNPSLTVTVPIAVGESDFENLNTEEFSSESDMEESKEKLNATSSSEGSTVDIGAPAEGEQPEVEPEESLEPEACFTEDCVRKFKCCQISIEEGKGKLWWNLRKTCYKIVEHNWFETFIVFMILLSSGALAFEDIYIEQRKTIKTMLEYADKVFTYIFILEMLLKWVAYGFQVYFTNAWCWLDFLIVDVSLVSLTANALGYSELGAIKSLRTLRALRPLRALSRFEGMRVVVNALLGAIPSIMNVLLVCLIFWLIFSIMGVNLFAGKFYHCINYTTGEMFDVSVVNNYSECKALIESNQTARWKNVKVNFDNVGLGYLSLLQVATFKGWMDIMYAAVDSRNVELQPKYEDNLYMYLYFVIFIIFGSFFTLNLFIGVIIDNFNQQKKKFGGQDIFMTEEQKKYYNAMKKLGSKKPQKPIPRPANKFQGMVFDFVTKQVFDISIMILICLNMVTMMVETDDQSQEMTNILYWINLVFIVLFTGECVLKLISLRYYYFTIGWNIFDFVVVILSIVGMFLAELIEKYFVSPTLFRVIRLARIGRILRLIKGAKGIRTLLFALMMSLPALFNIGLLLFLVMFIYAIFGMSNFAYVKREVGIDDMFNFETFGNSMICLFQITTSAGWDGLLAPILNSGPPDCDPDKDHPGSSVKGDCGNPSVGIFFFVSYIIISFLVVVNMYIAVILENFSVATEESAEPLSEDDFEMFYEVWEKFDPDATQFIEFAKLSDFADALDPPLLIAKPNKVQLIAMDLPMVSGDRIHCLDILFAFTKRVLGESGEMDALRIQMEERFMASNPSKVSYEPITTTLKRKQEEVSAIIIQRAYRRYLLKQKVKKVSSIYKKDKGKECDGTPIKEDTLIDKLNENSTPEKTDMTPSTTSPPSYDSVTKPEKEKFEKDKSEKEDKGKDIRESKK
From the text: automated planar patch-clamp, whole-cell peak current on NaV1.2

NaV1.1 = biological target: T2, NaV1.1 (Homo sapiens, UniProt P35498); conditions: holding -80 mV, 200 ms at -120 mV then test pulse to 0 mV every 2 s; 5 min exposure, cumulative 0.1-100 μM; 0.1% DMSO; pH 7.4; 27°C; n=9
T2 construct: gene SCN1A; full-length channel, stably expressed in HEK293T cells; beta subunits not mentioned
From the text: automated planar patch-clamp, whole-cell peak current on NaV1.1

NaV1.7 = biological target: T3, NaV1.7 (Homo sapiens, UniProt Q15858); conditions: holding -80 mV, 200 ms at -120 mV then test pulse to 0 mV every 2 s; 5 min exposure, cumulative 0.1-100 μM; 0.1% DMSO; pH 7.4; 27°C; n=7
T3 construct: gene SCN9A; full-length channel, stably expressed in HEK293T cells; beta subunits not mentioned
T3 sequence (Q15858 whole entry): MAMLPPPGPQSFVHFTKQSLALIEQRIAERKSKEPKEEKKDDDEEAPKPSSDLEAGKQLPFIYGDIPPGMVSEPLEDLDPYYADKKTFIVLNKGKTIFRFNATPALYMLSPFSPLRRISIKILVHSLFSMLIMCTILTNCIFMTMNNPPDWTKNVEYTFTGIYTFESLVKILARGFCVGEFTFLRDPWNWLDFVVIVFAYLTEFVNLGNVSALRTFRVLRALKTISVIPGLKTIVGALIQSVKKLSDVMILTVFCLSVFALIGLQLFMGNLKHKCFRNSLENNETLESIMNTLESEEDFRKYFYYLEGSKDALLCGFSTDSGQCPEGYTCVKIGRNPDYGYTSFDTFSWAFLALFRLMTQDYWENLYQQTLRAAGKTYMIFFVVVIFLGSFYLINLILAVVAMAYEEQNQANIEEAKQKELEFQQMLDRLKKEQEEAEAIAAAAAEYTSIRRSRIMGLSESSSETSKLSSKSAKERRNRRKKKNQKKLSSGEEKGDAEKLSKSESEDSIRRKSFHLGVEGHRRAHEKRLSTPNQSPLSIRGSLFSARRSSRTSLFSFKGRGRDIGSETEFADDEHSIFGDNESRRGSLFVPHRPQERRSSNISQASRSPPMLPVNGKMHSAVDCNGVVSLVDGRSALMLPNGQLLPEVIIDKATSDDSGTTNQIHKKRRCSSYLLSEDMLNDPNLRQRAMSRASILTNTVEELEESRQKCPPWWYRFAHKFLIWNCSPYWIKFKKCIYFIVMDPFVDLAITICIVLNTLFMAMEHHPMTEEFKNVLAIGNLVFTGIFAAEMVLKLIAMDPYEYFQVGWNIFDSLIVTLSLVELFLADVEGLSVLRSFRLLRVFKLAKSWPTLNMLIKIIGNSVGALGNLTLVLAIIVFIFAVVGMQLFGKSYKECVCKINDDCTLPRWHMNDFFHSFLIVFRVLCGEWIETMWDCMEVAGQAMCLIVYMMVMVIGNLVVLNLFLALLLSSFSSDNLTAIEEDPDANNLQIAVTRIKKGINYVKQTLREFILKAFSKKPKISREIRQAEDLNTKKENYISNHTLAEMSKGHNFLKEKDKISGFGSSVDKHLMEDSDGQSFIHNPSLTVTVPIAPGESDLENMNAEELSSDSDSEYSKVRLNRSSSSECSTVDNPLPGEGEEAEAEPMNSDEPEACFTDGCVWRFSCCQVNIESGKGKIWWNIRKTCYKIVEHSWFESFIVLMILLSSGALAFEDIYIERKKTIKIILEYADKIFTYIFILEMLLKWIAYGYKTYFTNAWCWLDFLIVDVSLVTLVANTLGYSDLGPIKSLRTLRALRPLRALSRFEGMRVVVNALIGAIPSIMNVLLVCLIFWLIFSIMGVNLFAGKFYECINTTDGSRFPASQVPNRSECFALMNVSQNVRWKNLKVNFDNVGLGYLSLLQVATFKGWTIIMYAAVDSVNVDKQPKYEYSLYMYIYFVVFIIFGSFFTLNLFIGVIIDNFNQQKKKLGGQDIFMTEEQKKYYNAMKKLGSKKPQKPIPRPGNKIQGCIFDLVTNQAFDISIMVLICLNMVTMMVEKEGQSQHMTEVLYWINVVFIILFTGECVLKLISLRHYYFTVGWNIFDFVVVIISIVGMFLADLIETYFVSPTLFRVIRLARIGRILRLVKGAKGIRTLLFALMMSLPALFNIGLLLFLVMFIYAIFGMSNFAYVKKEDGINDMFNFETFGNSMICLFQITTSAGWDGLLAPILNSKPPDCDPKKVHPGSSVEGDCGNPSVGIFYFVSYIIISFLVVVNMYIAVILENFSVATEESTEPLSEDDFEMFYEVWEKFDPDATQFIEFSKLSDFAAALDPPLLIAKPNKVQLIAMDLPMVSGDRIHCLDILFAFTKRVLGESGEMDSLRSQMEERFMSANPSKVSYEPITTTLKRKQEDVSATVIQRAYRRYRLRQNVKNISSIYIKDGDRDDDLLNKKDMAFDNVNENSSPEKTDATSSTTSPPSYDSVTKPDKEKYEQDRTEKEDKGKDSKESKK
From the text: automated planar patch-clamp, whole-cell peak current on NaV1.7

C=C(C)[C@@H]1CCC(C)=C[C@H]1c1c(O)cc(CCCCC)cc1O [CBD]
IC50 (NaV1.2): 18.4 ± 2.6 µM | IC50 (NaV1.1): 18.5 ± 2.2 µM | IC50 (NaV1.7): 11.9 ± 2.2 µM
